Laboratory results published in patent publication US20060122279A1, “Hydrophobic polyamine amides as potent lipopolysaccharide sequestrants” (priority 2004, published 2006).
Read-outs that look alike come from different tables or passages of the source.

Tests used:
Type in all cases: cell-based
NFκB = NFκB inhibition (LPS-induced); conditions: in words
Source text: A focused library of alkyl or acyl c-substituted lysine-spermine conjugates is synthesized with even carbon-numbered chains of C14 to C20 lengths. […] Furthermore, the data showhigh activity compounds are those with chain lengths between C16 and C20. […] The exemplary compounds L-Lys-ε-(stearoyl)-N^1-spermine, D-Lys-ε-(stearoyl)-N^1-spermine, L-Lys-ε-(octadecanyl)-N^1-spermine and D-Lys-ε-(octadecanyl)—N1-spermine all show high activity for the prevention of LPS-induced NFκβ cytokine release from stimulated lymphocytes. Furthermore, the exemplary compounds L-Lys-ε-(stearoyl)-N^1-spermine, D-Lys-ε-(stearoyl)-N^1-spermine, L-Lys-ε-(octadecanyl)-N^1-spermine and D-Lys-ε-(octadecanyl)-N^1-spermine all show high activity for the prevention of LPS-induced NO release from stimulated lymphocytes.

[1] = test system: TNF-α and IL-6 production in whole human blood; test: Multiplexed cytokine assay ex vivo in human blood stimulated with LPS; conditions: versus polymyxin B
Experimental: The activity of a subset of active Lys-spermine compounds is examined for their ability to inhibit TNF-α and IL-6 production in whole human blood, stimulated ex vivo with LPS.
100 μl aliquots of fresh whole blood, anticoagulated with EDTA, obtained by venipuncture from healthy human volunteers with informed consent and as per guidelines approved by the Human Subjects Experimentation Committee, is exposed to an equal volume of 50 ng/ml of E. coli 0111:B4 LPS, with graded concentrations of test compounds diluted in saline for 4 h in a 96-well microtiter plate. The effect of the compounds on modulating cytokine production examined using a FACSArray multiplexed flow-cytometric bead array (CBA) system (Becton-Dickinson-Pharmingen, San Jose, Calif.). The system uses a sandwich ELISA-on-a-bead principle,^55;56 and is comprised of 6 populations of microbeads that are spectrally unique in terms of their intrinsic fluorescence emission intensities (detected in the FL3 channel of a standard flow cytometer). […] After washing the beads, a mixture of optimally paired second antibodies conjugated to phycoerythrin is added which then forms a fluorescent ternary complex with the immobilized cytokine, the intensity (measured in the FL2 channel) of which is proportional to the cytokine concentration on the bead. […] The data are analyzed in the CBA software suite that is integral to the FACSArray system.

[2] = test system: murine macrophage J774.A1 cells; test: Nitric oxide (NO) inhibition in LPS-stimulated J774.A1 cells (Griess)
Experimental: Murine monocytes (J774.A1 cells) produce measurable quantities of NO on exposure to LPS and provide a model for the rapid assessment of compounds to neutralize LPS activity. […] In all experiments, Polymyxin B (PMB), a decapeptide antibiotic, known to bind and neutralize LPS,^29;47;48 is used as a reference compound.
Nitric oxide production is measured as total nitrite in murine macrophage J774.A1 cells using the Griess reagent system.^53;54 Murine macrophage J774.A1 cells are grown in RPMI-1640 cell-culture medium containing L-glutamine and sodium bicarbonate and supplemented with 10% fetal bovine serum, 1% L-glutamine-penicillin-streptomycin solution, and 200 μg/ml L-arginine at 37° C. in a 5% CO2 atmosphere. Cells are plated at ˜2×10^6/ml in a volume of 40 μl/well, in 384 well, flat-bottomed, cell culture treated microtiter plates until confluency and subsequently stimulated with 100 ng/ml lipopolysaccharide (LPS). Concurrent to LPS stimulation, serially diluted concentrations of test compounds are added to the cell medium and left to incubate overnight for 16 h. Polymyxin B is used as reference compound in each plate. Positive—(LPS stimulation only) and negative-controls (J774.A1 medium only) are included in each experiment. Nitrite concentrations are measured adding 30 μl of supernatant to equal volumes of Griess reagents (50 μl/well; 0.1% NED solution in ddH2O and 1% sulfanilamide, 5% phosphoric acid solution in ddH2O) and incubating for 15 minutes at room temperature in the dark. Absorbance at 535 nm is measured using a Molecular Devices Spectramax M2 multifunction plate reader (Sunnyvale, Calif.). Nitrite concentrations are interpolated from standard curves obtained from serially diluted sodium nitrite standards.

Question: What does the source list for `CCCCCCCCCCCCCCCCCC(=O)NCCCCC(N)C(=O)NCCCNCCCCNCCCN` [Compound 8, D-Lys-ε-(stearoyl)-N^1-spermine]?
Answer: prevention of LPS-induced NFκβ cytokine release from stimulated lymphocytes (NFκB): high activity; inhibitory potency on TNF-α and IL-6 production [1]: almost as potent as polymyxin B; IC50 ([2]; J774.A1 cells, 100 ng/ml LPS, 16 h, Tables 1-3, read-out: NO IC50): 1.98 µM; IC50 ([2]; Table 7 focused library, NO inhibition, read-out: NO): 10.3 µM; prevention of LPS-induced NO release from J774.A1 macrophages ([2]; in words): high activity
